“Also recorded” adds a separate entry of the source.
Columns and labels:
[1] = system: iPSC-derived human neurons bearing the Swedish amyloid precursor protein mutation; assay: Secretion of Abeta40 and Abeta42 into media (ELISA); format: cell-based; settings: 5 days; for secretion of Abeta40 into the media / secretion of Abeta42 into the media: 10 micromolar; for secretion of Abeta40 into the media: FIG. 7A; for secretion of Abeta42 into the media: FIG. 7B
Excerpt: Media was collected and analysed by ELISA assay.
Media was taken and analyzed by ELISA (Invitrogen) for Abeta 40 (FIG. 7A) and 42 (FIG. 7B) following manufacturer's instructions.

[2] = Metabolic stability in human liver microsomes; format: in vitro ADME; settings: for Increase of elimination half-life vs. ambroxol: human liver microsomes; for In vitro elimination half-life t1/2 / Intrinsic clearance CLint-microsomes: human liver microsomes 1 mg/mL protein, 1 μM compound, 37° C., NADPH-regenerating system
Method: The compounds were added to preparations of human liver microsomes (200 μL per incubation at a 1 mg/mL protein concentration) such that the final compound concentration was 1 μM. The samples were incubated at 37° C. in the presence of a reduced nicotinamide adenine dinucleotide phosphate (NADPH)-regenerating system (NADP, 1 mM, pH 7.4; glucose-6-phosphate, 5 mM, pH 7.4; glucose-6-phosphate dehydrogenase, 1 unit/mL). A positive control (midazolam, 1 μM, 0.1 mg/mL protein) was incubated concurrently to ensure the microsome preparation was performing as expected. Samples were obtained at t=0, 30, 60, and 120 min and quenched by addition of acetonitrile.
Quenched samples were analyzed by liquid chromatography coupled to tandem mass spectrometry detection (LC/MS-MS). The concentration of the test compounds at each time point were converted to percent remaining relative to the concentration of the compound at time t=0 (which serves as the 100% value). All data points were included in data processing. The rate constant of elimination (kel, min^−1) of each test compound was determined from the time course of disappearance of the parent compound based on fitting the experimental data to a single exponential decay formula (At=Aoe^−kelt, where At is the % remaining at time t, Ao is 100%, […] is the elimination rate constant, and t is time). The in vitro half-life (t1/2) was determined from kel based on the formula: t1/2=ln(2)/kel. The rate constant of elimination was also used to calculate the in vitro intrinsic clearance CLint-microsomes (μL/min/mg protein).

[3] = system: human induced pluripotent stem cell (iPSC)-derived neurons; assay: Lysosomal size (Lysotracker, confocal microscopy) in iPSC-derived neurons; format: cell-based; settings: 14 days, IMARIS software, FIG. 3
Method: To obtain the data, human induced pluripotent stem cell (iPSC)-derived neurons were grown in culture for 14 days. Lysosomes were stained with “Lysotracker” and cells were fixed and imaged using confocal micrsosopy. Lysosomal size was measured using IMARIS software (Bitplane).
In FIG. 3 human neuronal inducible Pluripotent Stem Cells (iPSCs) were obtained from the New York Stem Cell Foundation. Cultured cells were differentiated and maintained in proprietary media from Stem Cell Technology. […] Cells were treated for 14 days. Lysosomes were stained with “Lysotracker Green” (Invitrogen) following manufacturer's directions. Cells were fixed and 3D image stacks were acquired using a Leica SP8 laser scanning confocal microscope. Lysosomal size was quantitated using IMARIS 7.7 software (Bitplane).

N2A neuroblastoma cells = assay: Lysosomal, autophagosomal and TFEB gene expression by qPCR in N2A cells; format: cell-based; settings: 10 micromolar, FIG. 4
Method: To obtain the data, N2A neuroblastoma cells were treated for 3 days with solvent alone (DMSO), ZW-010 (difluoro) or ZW-011 (dimethoxy) at 10 micromolar. Cells were extracted and mRNAs were quantitated by qPCR.
In FIG. 4, N2a Neuroblastoma cells were obtained from the American Tissue Type Collection (ATCC). Cells were plated in a 6-well plate at a density of 100,000 cells/well. Cells were given 24 hours in MEM supplemented with 10% Fetal Bovine Serum (FBS) and then differentiated by serum starvation in MEM for 24 hours. […] Cells were left in treated media for 24 hours then RNA was TRIzol-chloroform extracted. cDNA was created using an iScript cDNA synthesis kit (Bio-Rad), and RT-PCR was run using a SsoAdvanced Universal SYBR Green Supermix kit (Bio-Rad).

[4] = system: iPSC-derived human neurons; assay: Lysosomal and autophagosomal gene expression by qPCR in iPSC-derived human neurons; format: cell-based; settings: 3 days, 10 micromolar, FIG. 5
Method: To obtain the data, iPSC-derived human Neurons were treated for 3 days with solvent alone (DMSO), ZW-010 (difluoro) or ZW-011 (dimethoxy) at 10 micromolar. Cells were extracted and mRNAs were quantitated by qPCR.
In FIG. 5, Human iPSC-derived neurons (as in FIG. 3) were plated on two 6-well plates at a density of 150,000 cells/well. […] Cells were treated for 3 days and cells were TRIzol-chloroform extracted. cDNA was created using an iScript cDNA synthesis kit (Bio-Rad), and RT-PCR was run using a SsoAdvanced Universal SYBR Green Supermix kit (Bio-Rad).

TFEB = TFEB transfer to the nucleus (immunostaining, nuclear puncta); format: cell-based; settings: human iPSC-derived neurons, 14 days; FIG. 6
Method: To obtain the data, human iPSC-derived neurons were treated with difluor-substituted-ambroxol for 14 days. Cells were fixed and endogenous TFEB was immunostained and nuclei were identified by DAPI staining. Cells were imaged on a Leica SP8 Confocal Microscope. TFEB signal appeared as puncta throughout the cytoplasm and nucleus (FIG. 6B). TFEB puncta within the nucleus were quantitated using IMARIS software (Bitplane).
Human iPSC-derived neurons were treated with difluoro-substituted-ambroxol for 14 days. Cells were fixed and endogenous TFEB was immunostained. Nuclei were identified by DAPI staining. Cells were imaged as 3D stacks on a Leica SP8 Confocal Microscope. TFEB signal appeared as puncta throughout the cytoplasm and nucleus (FIG. 6A). TFEB puncta within the nucleus were quantitated using IMARIS 7.7 software (Bitplane) (FIG. 6B).

[5] = mouse, in vivo, po, 10 mg/kg
Method: Both compounds were dosed at 10 mg/kg (free base equivalent) as 1 mg/mL clear solutions in 5:95 v/v dimethylsulfoxide (DMSO)/saline. Volumes administered were calculated for each animal based on their most recent weight. Animals were fasted overnight prior to drug administration and food and water were returned 4 h after dose administration. Mice (N=3 per group) were sacrificed at 0.15, 0.25, 1, 2, 4, 8, and 24 h post-dose. Blood (K2EDTA collection tubes) and brain were collected from each animal at each time point. Plasma (isolated from blood samples by centrifugation) and brain homogenates (obtained by homogenization with 50% methanol in water in a 1:2 w/v ratio) were used to prepare samples for quantitative analysis (internal standard: verapamil) by HPLC/MS-MS (C18 column, gradient elution; standard curves from 1 to 3,000 ng/mL; electrospray, positive ionization mode, multiple reaction monitoring—MRM—mode).

mouse B6D2F1 model = assay: Lifespan study with chow supplement; format: in vivo; settings: 50 mg/kg daily as chow supplement
Method: Weaned male BDF1 mice raised from pups, housed 1-4 animals per cage and fed Teklad 7013 NIH-31 rodent chow and water ad libitum, at 2 months of age, are divided into two roughly equal groups of 22-25 animals. One group continues to be fed the Teklad chow as before (control); the other group is switched to Teklad chow formulated with any one of compounds 1-6 at 300 mg per kg of chow. This formulation was designed, based on the average ad libitum chow consumption of an adult male BDF1 mouse, to deliver 50 mg/kg/day (based on body mass) to each mouse in the treated group. Mice are maintained on this diet until they die naturally or until they reach 16 months of age, at which time the experiment ends. During the course of the experiment, all mice are periodically removed from their cages and handled in the course of subjecting them to various sensorimotor, cognitive, and/or behavioral tests.

mice = assay: Novel place recognition (cognitive acuity test at 7 months); format: in vivo, mouse; settings: 150 mg/kg/day and 50 mg/kg/day vs. control, tested at 7 months; FIG. 9
Method: A Discrimination Index (DI)=(tnovel-tfamiliar)/(tnovel+tfamiliar) was used to assess the time spent exploring near the object in a novel place (“tnovel”) vs. the total exploration time overall. Discrimination Index scores greater than zero are considered to indicate good place recognition memory.
Three groups of mice, with at least 13 mice in each group, are given a cognitive acuity test at 7 months. The three groups of mice are: “High Dose” Group (150 mg/kg/day of a compound of the present invention), “Low Dose” (50 mg/kg/day of a compound of the present invention) Group, and a Control Group (not administered a compound of the present invention).

| Structure (SMILES) | secretion of Abeta40 into the media [1] | secretion of Abeta42 into the media [1] | Increase of elimination half-life vs. ambroxol [2] | In vitro elimination half-life t1/2 [2] | Intrinsic clearance CLint-microsomes [2] | lysosomal size [3] | lysosomal, autophagosomal and TFEB gene expression (LAMP1, Cathepsin B, GBA1, LC3, TFEB mRNA) (N2A neuroblastoma cells) | lysosomal and autophagosomal gene expression (LAMP1, Cathepsin D, Cathepsin B, GBA1, LC3, TFEB mRNA) [4] | TFEB transfer to the nucleus (TFEB) | AUClast Brain/Plasma [5] | AUClast, brain [5] | AUClast, plasma [5] | molar exposure AUClast [5] | lifespan (mouse B6D2F1 model; starting at 2 months of age, FIG. 8) | healthspan (mouse B6D2F1 model; surviving animals when sacrificed) | secretion of beta amyloid species (Abeta 40 and 42) ([1]; FIG. 7A-B) | cognitive acuity (novel place recognition) (mice) |
| --- | --- | --- | --- | --- | --- | --- | --- | --- | --- | --- | --- | --- | --- | --- | --- | --- | --- |
| COc1cc(CN[C@H]2CC[C@H](O)CC2)c(N)c(OC)c1 [ZW-011, trans-4-{[(2-amino-3.5-dimethoxyphenyl)methyl]amino}cyclohexanol] | decreased secretion | decreased secretion | increased by more than two-fold | >2 h | <5.775 μL/min/mg protein | increase lysosomal size | increased transcription of lysosome-associated LAMP1, Cathepsin B, GBA1, and autophagy-associated LC3 and TFEB to a greater extent than ambroxol; also recorded: drive lysosomal and autophagosomal and TFEB gene expression | increased transcription of lysosome-associated LAMP1, Cathepsin D, Cathepsin B, GBA1, and autophagy-associated LC3 and TFEB to a greater extent than ambroxol; also recorded: drive lysosomal and autophagosomal gene expression to a greater degree in iPSC-derived human neurons compared with ambroxol |  |  |  |  |  |  |  |  |  |
| Nc1c(F)cc(F)cc1CN[C@H]1CC[C@H](O)CC1 [ZW-010, trans-{4-[(2-amino-3.5-difluorophenyl)methyl]amino}cyclohexanol] | decreased secretion | decreased secretion | increased by more than two-fold | >2 h | <5.775 μL/min/mg protein | increase lysosomal size | increased transcription of lysosome-associated LAMP1, Cathepsin B, GBA1, and autophagy-associated LC3 and TFEB to a greater extent than ambroxol; also recorded: drive lysosomal and autophagosomal and TFEB gene expression | increased transcription of lysosome-associated LAMP1, Cathepsin D, Cathepsin B, GBA1, and autophagy-associated LC3 and TFEB to a greater extent than ambroxol; also recorded: drive lysosomal and autophagosomal gene expression to a greater degree in iPSC-derived human neurons compared with ambroxol | induces TFEB transfer to the nucleus | 3.6 | 10774 ng·h/g | 2991 ng·h/mL | 42.0 µM·h |  |  |  |  |
| Nc1c(Br)cc(Br)cc1CN[C@H]1CC[C@H](O)CC1 [ambroxol, trans-4-((2-amino-3,5-dibromobenzyl)amino) cyclohexanol] |  |  |  |  |  |  |  |  |  |  |  |  |  | able to increase lifespan | healthspan was extended in parallel with lifespan | effective in reducing secretion of beta amyloid species | dose-related improvement in cognitive acuity |

Reference: patent publication US12668567B2 (Zywie, LLC, priority 2023, dated 2026)
